Measurements taken from US20240166652A1, “MODULATORS OF THE INTEGRATED STRESS PATHWAY” (Calico Life Sciences LLC, priority 2017, published 2024).

These molecules were tested on ATF4 luciferase reporter in HEK293T cells (assay: ATF4-Luc assay (ATF4 luciferase reporter, tunicamycin-treated HEK293T cells)). Conditions: Homo sapiens, HEK-293T; HEK293T cells carrying the ATF4 luciferase reporter, 1 μg/mL tunicamycin, 7 hours.
Format: cell-based, human

| Structure (SMILES) | EC50 [nM] |
| --- | --- |
| O=C(COc1ccc(C(F)(F)F)nc1)NC12CCC(NC(=O)COc3ccc(Cl)c(F)c3)(CC1)CC2 [Compound 101, 2-(4-chloro-3-fluorophenoxy)-N-[4-(2-{[6-(trifluoromethyl)pyridin-3-yl]oxy}acetamido)bicyclo[2.2.2]octan-1-yl]acetamide] | 10 to 50 |
| O=C(O)/C=C1\CC2(NC(=O)COc3ccc(Cl)c(F)c3)CCC1(NC(=O)COc1ccc(Cl)c(F)c1)CC2 [Compound 669, (2E)-{1,4-bis[2-(4-chloro-3-fluorophenoxy)acetamido]bicyclo[2.2.2]octan-2-ylidene}acetic Acid] | 50 to 250 |
| O=C(CCOc1ccc(Cl)c(F)c1)NC12CC(NC(=O)COc3ccc(Cl)c(F)c3)(C1)C2 [Compound 730, 3-(4-chloro-3-fluorophenoxy)-N-{3-[2-(4-chloro-3-fluorophenoxy)acetamido]bicyclo[1.1.1]pentan-1-yl}propanamide] | 10 to 50 |
| O=C(COc1ccc(Cl)c(F)c1)NC12CCC(NC(=O)COc3ccc(C(F)F)cc3)(CC1)[C@@H](O)C2 [Compound 537, 2-(4-chloro-3-fluorophenoxy)-N-[(3S)-4-{2-[4-(difluoromethyl)phenoxy]acetamido}-3-hydroxybicyclo[2.2.2]octan-1-yl]acetamide] | < 10 |
| O=C(COc1ccc(Cl)c(F)c1)NC12CC(NC(=O)COc3cnc4cc[nH]c4c3)(C1)C2 [Compound 254, 2-(4-chloro-3-fluorophenoxy)-N-(3-{2-[(1H-pyrrolo[3,2-b]pyridin-6-yl)oxy]acetamido}bicyclo[1.1.1]pentan-1-yl)acetamide] | 250 to 500 |
| O=C(COc1ccc(Cl)c(F)c1)NC12CCC(NC(=O)COc3cnc(C(F)F)cn3)(CC1)[C@@H](O)C2 [Compound 382, 2-(4-chloro-3-fluorophenoxy)-N-[(3S)-4-(2-{[5-(difluoromethyl)pyrazin-2-yl]oxy}acetamido)-3-hydroxybicyclo[2.2.2]octan-1-yl]acetamide] | > 2000 |
| O=C(COc1ccc(Cl)c(Cl)c1)NC12CC(NC(=O)OCc3cccc(Cl)c3)(C1)C2 [Compound 172, (3-chlorophenyl)methyl {3-[2-(3,4-dichlorophenoxy)acetamido]-bicyclo[1.1.1]pentan-1-yl}carbamate] | 250 to 500 |
| CS(=O)(=O)c1ccc(CC(=O)NC23CCC(NC(=O)COc4ccc(Cl)c(F)c4)(CC2)CC3O)cc1 (centres unmarked) [Compound 325, 2-(4-chloro-3-fluorophenoxy)-N-(3-hydroxy-4-{2-[4-(methanesulfonyl)phenyl]acetamido}bicyclo[2.2.2]octan-1-yl)acetamide] | > 2000 |
| CC(C)(C)OC(=O)CN(CCOc1ccc(Cl)c(F)c1)C12CC(NC(=O)COc3ccc(Cl)c(F)c3)(C1)C2 [Compound 688, tert-butyl ({3-[2-(4-chloro-3-fluorophenoxy)acetamido]bicyclo[1.1.1]pentan-1-yl}[2-(4-chloro-3-fluorophenoxy)ethyl]amino)acetate] | 50 to 250 |
| Cc1cc(OCC(=O)NC23CCC(NC(=O)COc4ccc(Cl)c(F)c4)(CC2)[C@@H](O)C3)no1 [Compound 665, 2-(4-chloro-3-fluorophenoxy)-N-[(2S)-2-hydroxy-4-{2-[(5-methyl-1,2-oxazol-3-yl)oxy]acetamido}bicyclo[2.2.2]octan-1-yl]acetamide] | 10 to 50 |
| O=C(COc1ccc(F)c(C(F)(F)F)c1)NC12CCC(NC(=O)COc3ccc(F)c(F)c3)(CC1)[C@@H](O)C2 [Compound 845, 2-(3,4-difluorophenoxy)-N-[(2S)-4-{2-[4-fluoro-3-(trifluoromethyl)phenoxy]acetamido}-2-hydroxybicyclo[2.2.2]octan-1-yl]acetamide] | < 10 |
| CN(CCCOc1ccc(Cl)cc1)C12CCC(NC(=O)COc3ccc(Cl)c(F)c3)(CC1)[C@@H](O)C2 [Compound 696, 2-(4-chloro-3-fluorophenoxy)-N-[(2S)-4-{[3-(4-chlorophenoxy)propyl](methyl)amino}-2-hydroxybicyclo[2.2.2]octan-1-yl]acetamide] | 10 to 50 |
| O=C(COc1ccc2c(c1)OC(F)(F)O2)NC12CCC(NC(=O)COc3ccc4c(c3)OC(F)(F)O4)(CC1)C2 [Compound 531, N,N′-(bicyclo[2.2.1]heptane-1,4-diyl)bis{2-[(2,2-difluoro-2H-1,3-benzodioxol-5-yl)oxy]acetamide}] | 250 to 500 |
| CN(CC(=O)NC12CC(NC(=O)COc3ccc(Cl)c(Cl)c3)(C1)C2)c1ccc(Cl)cc1 [Compound 200, N^2-(4-chlorophenyl)-N-{3-[2-(3,4-dichlorophenoxy)acetamido]-bicyclo[1.1.1]pentan-1-yl}-N^2-methylglycinamide] | > 2000 |
| O=C(COCc1ccccc1)NC12CC(NC(=O)COc3ccc(Cl)cc3)(C1)C2 [Compound 208, 2-(benzyloxy)-N-{3-[2-(4-chlorophenoxy)acetamido]bicyclo[1.1.1]pentan-1-yl}acetamide] | 50 to 250 |
| O=C(COc1cnc(C(=O)O)nc1)NC12CCC(NC(=O)COc3ccc(Cl)c(F)c3)(CC1)[C@@H](O)C2 [Compound 642, 5-[2-({(3S)-4-[2-(4-chloro-3-fluorophenoxy)acetamido]-3-hydroxybicyclo[2.2.2]octan-1-yl}amino)-2-oxoethoxy]pyrimidine-2-carboxylic Acid] | > 2000 |

| Structure (SMILES) | EC50 [nM] |
| --- | --- |
| O=C(COc1cccc(C(F)(F)F)n1)NC12CCC(NC(=O)COc3ccc(Cl)c(F)c3)(CC1)[C@@H](O)C2 [Compound 824, 2-(4-chloro-3-fluorophenoxy)-N-[(2S)-2-hydroxy-4-(2-{[6-(trifluoromethyl)pyridin-2-yl]oxy}acetamido)bicyclo[2.2.2]octan-1-yl]acetamide] | 10 to 50 |
| O=C(COc1ccc(OC(F)(F)F)c(F)c1)NC12CCC(NC(=O)COc3ccc(F)cc3)(CC1)[C@@H](O)C2 [Compound 762, 2-(4-fluorophenoxy)-N-[(2S)-4-{2-[3-fluoro-4-(trifluoromethoxy)phenoxy]acetamido}-2-hydroxybicyclo[2.2.2]octan-1-yl]acetamide] | < 10 |
| O=C(COCCc1cccc(Cl)c1)NC12CC(NC(=O)COc3ccc(Cl)c(F)c3)(C1)C2 [Compound 133, 2-(4-chloro-3-fluorophenoxy)-N-(3-{2-[2-(3-chlorophenyl)ethoxy]acetamido}-bicyclo[1.1.1]pentan-1-yl)acetamide] | 50 to 250 |
| O=C(COCc1cccc(Cl)c1)NC12CC(NC(=O)COc3ccc(Cl)c(Cl)c3)(C1)C2 [Compound 158, 2-[(3-chlorophenyl)methoxy]-N-{3-[2-(3,4-dichlorophenoxy)acetamido]-bicyclo[1.1.1]pentan-1-yl}acetamide] | < 10 |
| O=C(/C=C/c1ccc(C(F)(F)F)nc1)NC12CC(NC(=O)COc3ccc(Cl)c(F)c3)(C1)C2 [Compound 351, (2E)-N-{3-[2-(4-chloro-3-fluorophenoxy)acetamido]bicyclo[1.1.1]pentan-1-yl}-3-[6-(trifluoromethyl)pyridin-3-yl]prop-2-enamide] | 250 to 500 |
| CS(=O)(=O)c1cc(OCC(=O)NC23CCC(NC(=O)COc4ccc(F)c(F)c4)(CC2)[C@@H](O)C3)ccc1F [Compound 818, 2-(3,4-difluorophenoxy)-N-[(2S)-4-{2-[4-fluoro-3-(methanesulfonyl)phenoxy]acetamido}-2-hydroxybicyclo[2.2.2]octan-1-yl]acetamide] | 250 to 500 |
| O=C(COc1ccc(Cl)cc1)NC12CC(NCCOc3ccc(Cl)cc3)(C1)C2 [Compound 113, 2-(4-chlorophenoxy)-N-(3-{[2-(4-chlorophenoxy)ethyl]amino}bicyclo-[1.1.1]pentan-1-yl)acetamide] | 50 to 250 |
| O=C(COc1ccc(Cl)c(F)c1)NC12CCC(NC(=O)COc3ccc(Cl)c(F)c3)(CC1)C(=O)C2 [Compound 272, N,N′-(2-oxobicyclo[2.2.2]octane-1,4-diyl)bis[2-(4-chloro-3-fluorophenoxy)acetamide]] | < 10 |
| O=C(COc1ccc(OC(F)(F)F)c(F)c1)NC12CCC(NC(=O)COc3ccc(F)c(F)c3)(CC1)[C@@H](O)C2 [Compound 763, 2-(3,4-difluorophenoxy)-N-[(2S)-4-{2-[3-fluoro-4-(trifluoromethoxy)phenoxy]acetamido}-2-hydroxybicyclo[2.2.2]octan-1-yl]acetamide] | < 10 |
| Cn1ccc(OCC(=O)NC23CC(NC(=O)COc4ccc(Cl)c(F)c4)(C2)C3)n1 [Compound 381, 2-(4-chloro-3-fluorophenoxy)-N-(3-{2-[(1-methyl-1H-pyrazol-3-yl)oxy]acetamido}bicyclo[1.1.1]pentan-1-yl)acetamide] | 500 to 2000 |
| Cc1nc(F)ccc1OCC(=O)NC12CC(NC(=O)COc3ccc(Cl)c(F)c3)(C1)C2 [Compound 249, 2-(4-chloro-3-fluorophenoxy)-N-(3-{2-[(6-fluoro-2-methylpyridin-3-yl)oxy]acetamido}bicyclo[1.1.1]pentan-1-yl)acetamide] | 250 to 500 |
| O=C(COc1ccc(Cl)c(F)c1)NC12CC(NC(=O)OCc3cccc(Cl)c3)(C1)C2 [Compound 164, (3-chlorophenyl)methyl {3-[2-(4-chloro-3-fluorophenoxy)-acetamido]bicyclo[1.1.1]pentan-1-yl}carbamate] | 500 to 2000 |
| O=C(COc1cnc(C(F)(F)F)nc1)NC12CCC(NC(=O)COc3ccc(Cl)c(F)c3)(CC1)[C@@H](O)C2 [Compound 627, 2-(4-chloro-3-fluorophenoxy)-N-[(2S)-2-hydroxy-4-(2-{[2-(trifluoromethyl)pyrimidin-5-yl]oxy}acetamido)bicyclo[2.2.2]octan-1-yl]acetamide] | < 10 |
| O=C(COc1ccc2c(c1)OC(F)(F)O2)NC12CCC(NC(=O)COc3ccc(Cl)c(Cl)c3)(CC1)C(=O)N2 [Compound 604, 2-(3,4-dichlorophenoxy)-N-(1-{2-[(2,2-difluoro-2H-1,3-benzodioxol-5-yl)oxy]acetamido}-3-oxo-2-azabicyclo[2.2.2]octan-4-yl)acetamide] | 10 to 50 |
| O=C(COc1ccc(OC(F)(F)F)cc1)NC12CC(NC(=O)COc3ccc(Cl)c(F)c3)(C1)C2 [Compound 393, 2-(4-chloro-3-fluorophenoxy)-N-(3-{2-[4-(trifluoromethoxy)phenoxy]acetamido}bicyclo[1.1.1]pentan-1-yl)acetamide] | < 10 |
| O=C(COc1ccc(Cl)c(F)c1)NC12CCC(NC(=O)COc3ccc(C(F)(F)F)nc3)(CC1)[C@H](O)C2 (single isomer, unassigned) [Compound 303] | 10 to 50 |
